Experimental findings from the NIST ThermoML archive (doi:10.1016/j.fluid.2012.05.006) are described below.

The series in a line: activity coefficient (dimensionless); of the first substance listed, at infinite dilution; xn = mol fraction of the nth substance listed. The settings on record: Liquid, Chromatography, x1 = 0.

± gives the expanded uncertainty stated by the source.

On to `Cc1cccc(C)c1` [1,3-dimethylbenzene] + CCCCCCCCn1cc[n+](C)c1.O=[N+]([O-])[O-], for which the activity coefficient is, setting by setting: (303.15 K) 2.02 ± 0.11; (313.15 K) 2.03 ± 0.11; (323.15 K) 2.05 ± 0.11; (333.15 K) 2.06 ± 0.11; (343.15 K) 2.07 ± 0.11; (353.15 K) 2.08 ± 0.11. Also, under “363.15 K”, the activity coefficient stood at 2.09 ± 0.11.
Regarding `CCCCCCCC` [octane] + CCCCCCCCn1cc[n+](C)c1.O=[N+]([O-])[O-], the activity coefficient stood at 17.9 ± 0.64 (303.15 K); 17 ± 0.61 (313.15 K); 16.2 ± 0.58 (323.15 K); 15.7 ± 0.56 (333.15 K); 15.2 ± 0.54 (343.15 K); 14.8 ± 0.53 (353.15 K). Besides, the activity coefficient (363.15 K) was 14.1 ± 0.5.
Consider `CCO` [ethanol] + CCCCCCCCn1cc[n+](C)c1.O=[N+]([O-])[O-], for which the activity coefficient came out at 0.38 ± 0.09 (303.15 K); 0.37 ± 0.09 (313.15 K); 0.35 ± 0.09 (323.15 K); 0.34 ± 0.09 (333.15 K); 0.33 ± 0.09 (343.15 K); 0.31 ± 0.09 (353.15 K). For the same molecule, the activity coefficient (363.15 K) is 0.3 ± 0.09.
`Cc1ccc(C)cc1` [1,4-dimethylbenzene] + CCCCCCCCn1cc[n+](C)c1.O=[N+]([O-])[O-]: the activity coefficient is, setting by setting: (303.15 K) 1.98 ± 0.11; (313.15 K) 1.99 ± 0.11; (323.15 K) 2 ± 0.11; (333.15 K) 2.01 ± 0.11; (343.15 K) 2.01 ± 0.11; (353.15 K) 2.02 ± 0.11. Besides, for the setting “363.15 K”, the activity coefficient amounted to 2.03 ± 0.11.
Turning to `CO` [methanol] + CCCCCCCCn1cc[n+](C)c1.O=[N+]([O-])[O-], the activity coefficient was determined as 0.26 ± 0.09 (303.15 K); 0.26 ± 0.09 (313.15 K); 0.25 ± 0.09 (323.15 K); 0.24 ± 0.09 (333.15 K); 0.23 ± 0.09 (343.15 K); 0.23 ± 0.09 (353.15 K). Besides, the activity coefficient (363.15 K) came to 0.22 ± 0.09.
Take `Cc1ccccc1` [toluene] + CCCCCCCCn1cc[n+](C)c1.O=[N+]([O-])[O-]: the activity coefficient by setting is: (303.15 K) 1.41 ± 0.1; (313.15 K) 1.41 ± 0.1; (323.15 K) 1.42 ± 0.1; (333.15 K) 1.43 ± 0.1; (343.15 K) 1.44 ± 0.1; (353.15 K) 1.45 ± 0.1. The activity coefficient (363.15 K) was found to be 1.46 ± 0.1.
For the molecule `ClCCl` [dichloromethane] + CCCCCCCCn1cc[n+](C)c1.O=[N+]([O-])[O-], the activity coefficient by setting is: (303.15 K) 0.32 ± 0.09; (313.15 K) 0.33 ± 0.09; (323.15 K) 0.34 ± 0.09; (333.15 K) 0.36 ± 0.09; (343.15 K) 0.37 ± 0.09; (353.15 K) 0.38 ± 0.09. The activity coefficient (363.15 K) came out at 0.39 ± 0.09.
As for `CCCCCCC` [heptane] + CCCCCCCCn1cc[n+](C)c1.O=[N+]([O-])[O-], the activity coefficient by setting is: (303.15 K) 15.4 ± 0.55; (313.15 K) 14.3 ± 0.51; (323.15 K) 13.3 ± 0.48; (333.15 K) 12.3 ± 0.44; (343.15 K) 11.8 ± 0.42; (353.15 K) 11.2 ± 0.4. Also, the activity coefficient (363.15 K) amounted to 10.4 ± 0.37.
In the case of `CCCO` [propan-1-ol] + CCCCCCCCn1cc[n+](C)c1.O=[N+]([O-])[O-], the activity coefficient reads like this: (313.15 K) 0.41 ± 0.09; (323.15 K) 0.4 ± 0.09; (333.15 K) 0.38 ± 0.09; (343.15 K) 0.37 ± 0.09; (353.15 K) 0.36 ± 0.09; (363.15 K) 0.35 ± 0.09.
On to `CC#N` [acetonitrile] + CCCCCCCCn1cc[n+](C)c1.O=[N+]([O-])[O-], for which the activity coefficient runs as follows: (303.15 K) 0.6 ± 0.09; (313.15 K) 0.59 ± 0.09; (323.15 K) 0.58 ± 0.09; (333.15 K) 0.57 ± 0.09; (343.15 K) 0.56 ± 0.09; (353.15 K) 0.55 ± 0.09. Besides, the activity coefficient (363.15 K) amounted to 0.54 ± 0.09.
With `ClC(Cl)Cl` [trichloromethane] + CCCCCCCCn1cc[n+](C)c1.O=[N+]([O-])[O-], the activity coefficient came to 0.17 (303.15 K); 0.18 (313.15 K); 0.19 ± 0.09 (323.15 K); 0.2 ± 0.09 (333.15 K); 0.21 ± 0.09 (343.15 K); 0.22 ± 0.09 (353.15 K). For the same molecule, the activity coefficient (363.15 K) amounted to 0.23 ± 0.09.
With `CCCCCC` [hexane] + CCCCCCCCn1cc[n+](C)c1.O=[N+]([O-])[O-], the activity coefficient stood at 12.1 ± 0.43 (303.15 K); 11.2 ± 0.4 (313.15 K); 10.5 ± 0.37 (323.15 K); 9.74 ± 0.35 (333.15 K); 9.05 ± 0.32 (343.15 K); 8.5 ± 0.3 (353.15 K). Moreover, where the note is “363.15 K”, the activity coefficient was determined as 8.16 ± 0.29.
With `CCCCC` [pentane] + CCCCCCCCn1cc[n+](C)c1.O=[N+]([O-])[O-], the activity coefficient reads like this: (303.15 K) 8.5 ± 0.3; (313.15 K) 7.8 ± 0.28; (323.15 K) 7.45 ± 0.26; (333.15 K) 6.94 ± 0.25; (343.15 K) 6.46 ± 0.23; (353.15 K) 6.19 ± 0.22. Further, for the setting “363.15 K”, the activity coefficient was 5.77 ± 0.21.
On to `c1ccccc1` [benzene] + CCCCCCCCn1cc[n+](C)c1.O=[N+]([O-])[O-], for which the activity coefficient runs as follows: (303.15 K) 0.94 ± 0.09; (313.15 K) 0.96 ± 0.09; (323.15 K) 0.97 ± 0.09; (333.15 K) 0.98 ± 0.09; (343.15 K) 0.99 ± 0.09; (353.15 K) 1 ± 0.09. For the same molecule, the activity coefficient (363.15 K) was 1.01 ± 0.09.
Consider `CC(C)O` [propan-2-ol] + CCCCCCCCn1cc[n+](C)c1.O=[N+]([O-])[O-], for which the activity coefficient (303.15 K) came to 0.44 ± 0.09; the activity coefficient (313.15 K) was 0.43 ± 0.09; the activity coefficient (323.15 K) was found to be 0.43 ± 0.09; the activity coefficient (333.15 K) amounted to 0.42 ± 0.09; the activity coefficient (343.15 K) is 0.41 ± 0.09; the activity coefficient (353.15 K) worked out at 0.41 ± 0.09. Besides, the activity coefficient (363.15 K) is 0.4 ± 0.09.
For `CCc1ccccc1` [ethylbenzene] + CCCCCCCCn1cc[n+](C)c1.O=[N+]([O-])[O-], the activity coefficient is, setting by setting: (303.15 K, 101 kPa) 2.05 ± 0.11; (313.15 K, 101 kPa) 2.06 ± 0.11; (323.15 K, 101 kPa) 2.06 ± 0.11; (333.15 K, 101 kPa) 2.07 ± 0.11; (343.15 K, 101 kPa) 2.07 ± 0.11; (353.15 K, 101 kPa) 2.08 ± 0.11. Also, under “363.15 K, 101 kPa”, the activity coefficient stood at 2.09 ± 0.11.
Regarding `CC1CCCCC1` [methylcyclohexane] + CCCCCCCCn1cc[n+](C)c1.O=[N+]([O-])[O-], the activity coefficient runs as follows: (303.15 K) 7.91 ± 0.28; (313.15 K) 7.7 ± 0.27; (323.15 K) 7.37 ± 0.26; (333.15 K) 7.11 ± 0.25; (343.15 K) 6.81 ± 0.24; (353.15 K) 6.62 ± 0.23. The activity coefficient (363.15 K) was found to be 6.41 ± 0.23.
As to `Cc1ccccc1C` [1,2-dimethylbenzene] + CCCCCCCCn1cc[n+](C)c1.O=[N+]([O-])[O-], the activity coefficient turned out to be 1.75 ± 0.1 (303.15 K); 1.77 ± 0.1 (313.15 K); 1.79 ± 0.11 (323.15 K); 1.8 ± 0.11 (333.15 K); 1.82 ± 0.11 (343.15 K); 1.84 ± 0.11 (353.15 K). The activity coefficient (363.15 K) is 1.85 ± 0.11.
For the molecule `CCCCCCCCC` [nonane] + CCCCCCCCn1cc[n+](C)c1.O=[N+]([O-])[O-], the activity coefficient was 23.1 ± 0.83 (303.15 K); 21.8 ± 0.78 (313.15 K); 20.9 ± 0.75 (323.15 K); 20.1 ± 0.72 (333.15 K); 19.6 ± 0.7 (343.15 K); 18.6 ± 0.67 (353.15 K). In addition, the activity coefficient (363.15 K) worked out at 18.2 ± 0.65.
Take `ClC(Cl)(Cl)Cl` [tetrachloromethane] + CCCCCCCCn1cc[n+](C)c1.O=[N+]([O-])[O-]: the activity coefficient (303.15 K) stood at 1.16 ± 0.09; the activity coefficient (313.15 K) is 1.2 ± 0.09; the activity coefficient (323.15 K) was determined as 1.24 ± 0.09; the activity coefficient (333.15 K) came to 1.27 ± 0.1; the activity coefficient (343.15 K) is 1.3 ± 0.1; the activity coefficient (353.15 K) worked out at 1.35 ± 0.1. Besides, under “363.15 K”, the activity coefficient worked out at 1.39 ± 0.1.
Consider `C1CCOC1` [tetrahydrofuran] + CCCCCCCCn1cc[n+](C)c1.O=[N+]([O-])[O-], for which the activity coefficient is, setting by setting: (303.15 K) 1.03 ± 0.09; (313.15 K) 1.02 ± 0.09; (323.15 K) 1.01 ± 0.09; (333.15 K) 1 ± 0.09; (343.15 K) 0.99 ± 0.09; (353.15 K) 0.98 ± 0.09. Further, the activity coefficient (363.15 K) amounted to 0.97 ± 0.09.
`CC(C)=O` [acetone] + CCCCCCCCn1cc[n+](C)c1.O=[N+]([O-])[O-]: the activity coefficient runs as follows: (303.15 K) 0.84 ± 0.09; (313.15 K) 0.83 ± 0.09; (323.15 K) 0.81 ± 0.09; (333.15 K) 0.79 ± 0.09; (343.15 K) 0.77 ± 0.09; (353.15 K) 0.76 ± 0.09. Where the note is “363.15 K”, the activity coefficient is 0.74 ± 0.09.
For `CCOC(C)=O` [ethyl acetate] + CCCCCCCCn1cc[n+](C)c1.O=[N+]([O-])[O-], the activity coefficient worked out at 1.65 ± 0.1 (303.15 K); 1.64 ± 0.1 (313.15 K); 1.63 ± 0.1 (323.15 K); 1.63 ± 0.1 (333.15 K); 1.62 ± 0.1 (343.15 K); 1.61 ± 0.1 (353.15 K). For the same molecule, the activity coefficient (363.15 K) was found to be 1.6 ± 0.1.
